The text below walks through data of patent US20240215910A1, “A METHOD FOR […] PRO-OR ANTI […] TEST COMPOUNDS” (GW Research Limited, priority 2020, published 2024).

Data set [1] relates to tonic hind limb extensor convulsion from a single electroshock. Briefly: mini-MEST: maximal electroshock seizure threshold test using minimal sample sizes (n=6/group, log-scale current steps). As to conditions: for % change from vehicle / CC50 ± SEM: N=6.
Description: (§1) All animals were weighed at the beginning of the study and assigned to treatment groups (n=6/group) based on a mean distribution of body weight across groups.
The first animal within a treatment group was given a shock at the expected or estimated CC50 current. For subsequent animals, the current was lowered or raised depending on the convulsion outcome from the preceding animal in log scale intervals. Data generated from each treatment group were used to calculate the CC50±SEM values for the treatment group (see Table 5 for details).
as §1
The first animal within a treatment group was given a shock at the expected or estimated CC50 current. For subsequent animals, the current was lowered or raised depending on the convulsion outcome from the preceding animal in log scale intervals. Data generated from each treatment group were used to calculate the CC50±SEM values for the treatment group (see Table 10 for details).
as §1
The first animal within a treatment group was given a shock at the expected or estimated CC50 current. For subsequent animals, the current was lowered or raised depending on the convulsion outcome from the preceding animal in log scale intervals. Data generated from each treatment group were used to calculate the CC50±SEM values for the treatment group (see Table 15 for details).
In general terms: The maximal electroshock test induces tonic seizures with an electrical stimulus.

Data set [2] has as its system tonic hind limb extensor convulsion from a single electroshock; mouse model of generalised seizure. In words: standard maximal electroshock seizure threshold (MEST) test (n=12/group, 5 mA intervals). Particulars: Example 4, 30 min post dose; for CC50 +/− SEM: vehicle CC50 24.3. On the procedure: The efficacy of Compound 3 was tested in a mouse model of generalised seizure, the maximal electroshock seizure threshold (MEST) test.
All animals were weighed at the beginning of the study and randomly assigned to treatment groups (n=12/group) based on a mean distribution of body weight across groups.
The first animal within a treatment group was given a shock at the expected or
estimated CC50 current. For subsequent animals, the current was lowered or raised depending on the convulsions outcome from the preceding animal in 5 mA intervals.
Data generated from each treatment group were used to calculate the CC50±SEM values for the treatment group.
Test compound effects were also calculated as percentage change in CC50 from the vehicle control group.
Significant difference between drug-treated animals and controls were assessed according to Litchfield and Wilcoxon (1949).

Take `C=C(C)[C@@H]1CCC(C)=C[C@H]1c1c(O)cc(-c2cnn(CC(C)(C)C)c2)cc1O` [Compound 1]: the “% change from vehicle” value in data set [1] (Example 1, 50 mg/kg i.p., 30 min post dose) was determined as 388%. The “CC50 ± SEM” value in data set [1] (Example 1, 50 mg/kg i.p., 30 min post dose, vehicle CC50 24.5) is given as 119.5 mA.
Turning to `C=C(C)[C@@H]1CCC(C)=C[C@H]1c1c(O)cc(-c2cn(C)nn2)cc1O` [Compound 2], the “% change from vehicle” value in data set [1] (Example 2, 5 mg/kg i.p., 15 min post dose) is 26%; in data set [1] (Example 2, 50 mg/kg i.p., 30 min post dose), 213%. The “CC50 ± SEM” value is 28.3 +/− 1.1 mA in data set [1] (Example 2, 5 mg/kg i.p., 15 min post dose, vehicle CC50 22.5) and 70.5 +/− 5.8 mA in data set [1] (Example 2, 50 mg/kg i.p., 30 min post dose, vehicle CC50 22.5).
`C=C(C)[C@@H]1CCC(C)=C[C@H]1c1c(O)cc(-c2cnn(C)c2)cc1O` [Compound 3]: the “% change from vehicle” value is recorded as >636% in data set [1] (Example 3, 200 mg/kg i.p., 120 min post dose); 27% in data set [2] (2 mg/kg i.p., N=12); 116% in data set [2] (20 mg/kg i.p., N=12); 712% in data set [2] (200 mg/kg i.p., N=12). The “CC50 ± SEM” value in data set [1] (Example 3, 200 mg/kg i.p., 120 min post dose, no "+" seen, vehicle CC50 23.5) was >173 mA. Moreover, the “seizure threshold as compared to vehicle (in words)” value in data set [1] (Example 3, 200 mg/kg i.p., 120 mins before testing) is “clear increase in seizure threshold”. For the same molecule, the “CC50 +/− SEM” value in data set [2] (2 mg/kg i.p., N=12) worked out at 30.8 ± 1.0 mA; in data set [2] (20 mg/kg i.p., N=12) it was 52.5 ± 1.3 mA; in data set [2] (200 mg/kg i.p., N=12), 197.5 ± 20.4 mA. Also, the “effect on MEST across doses (in words)” value in data set [2] (2, 20 and 200 mg/kg i.p.) was “dose-related increase in MEST”.
With `CN1C(=O)CN=C(c2ccccc2)c2cc(Cl)ccc21` [Diazepam, diazepam, reference compound], the “% change from vehicle” value in data set [1] (Example 1, 2.5 mg/kg i.p., 30 min post dose) worked out at 206%; in data set [1] (Example 2, 2.5 mg/kg i.p., 30 min post dose), 296%; in data set [1] (Example 3, 2.5 mg/kg i.p., 30 min post dose), 98%; in data set [2] (2.5 mg/kg i.p., N=11) it was 223%.
